According to patent US10894036B2, “Use of marizomib for the treatment of central nervous system (CNS) cancers” (Celgene International II Sàrl, priority 2016, dated 2021):
Entries after “also recorded” stand apart in the source; their conditions may differ. Like-named read-outs stand apart in the source and are kept apart here.

Assays:
[1] = system: WHO Grade IV Malignant Glioma; experiment: Phase 1/2 MRZ + BEV and MRZ monotherapy in recurrent G4 MG: tumor response by RANO, PFS, OS; assay type: in vivo, human; settings: for Best Response NE (2), patients: MRZ monotherapy ITT
Source text: (§1) The drugs were infused on 28-Day Cycles.
Tumor response, including PD activity, progression-free survival (PFS), and overall survival (OS) will be assessed. Tumor response will be assessed by the Investigators using RANO 2010 criteria. The overall confirmed response rate will be presented. The response rate, PFS, and OS will also be tabulated by dose cohorts in Part 1 Phase 1 and for all response-evaluable patients in Part 2 Phase 2 and Part 3 Phase 2. Endpoints of response based on tumor assessments will be calculated for subjects who received at least 3 doses of MRZ and had at least 1 post-dose tumor evaluation.

[2] = system: chymotrypsin-like (CT-L) proteasome activity; experiment: Proteasome inhibition in packed whole blood: CT-L; assay type: in vivo, human
Source text: as §1
Change in proteasome activities in packed whole blood (PWB) lysates and peripheral blood mononuclear cell (PBMC) lysates, comparing pre-drug and post drug levels on Days 1, 8, and 15 of Cycle 1; Days 1 and 15 of each Cycle thereafter; and at the End-of Treatment Visit.
The laboratory correlates include assessment of the percentage inhibition of proteasome function (evaluated by measurement of CT-L, T-L and C-L activity in blood isolates such as whole blood and PBMC lysates.
PD analysis will include change in proteasome activities (whole blood lysates and PBMC lysates) by comparing pre-drug and post drug levels on Days 1, 8, and 15 (i.e., for each dose) of Cycle 1 and Days 1 and 15 (i.e., for the first and last doses) of each cycle thereafter.

[3] = system: proteasome; experiment: Proteasome activity in monkey brain; assay type: in vivo; settings: monkey (primate)
[4] = system: human glioblastoma (GBM) cell lines; experiment: Migration and matrix invasion of GBM cell lines; assay type: cell-based; settings: either of two GBM lines
Source text: In vitro studies of multiple glioma cell lines were highly sensitive to MRZ. […] Treatment with MRZ decreased matrix invasion by either of two GBM lines by approximately 90%, a highly significant effect.

[5] = system: recurrent glioma; settings: cited from earlier work; for 6 mo OS / 6 mo PFS / 9 mo OS / 9 mo PFS: BEV monotherapy
[6] = MRZ + BEV N = 10, MRZ monotherapy N = 7
[7] = MRZ + BEV N = 22, MRZ monotherapy N = 18
[8] = MRZ monotherapy 0.8 mg/m^2, first 15 recurrent glioma patients
[9] = MRZ 0.7 mg/m^2, C1D8 (17 May 2016)
[10] = MRZ 0.8 mg/m^2, C1D8 (17 May 2016)
[11] = MRZ 0.8 mg/m^2, C1D8 (Table 43)
[12] = BELOB Trial, BEV monotherapy (Taal et al., 2014)
[13] = BELOB trial BEV monotherapy arm (Taal et al., 2014)
[14] = Heiland (Freiburg, Germany), All Pts
[15] = Heiland (Freiburg, Germany), Methylated
[16] = Heiland (Freiburg, Germany), Unmethylated MGMT promoter
[17] = Taal (BELOB), Unmethylated MGMT promoter
[18] = Wick (EORTC 26101 P2), Methylated
[19] = Wick (EORTC 26101 P2), Unmethylated MGMT promoter

Compound: C[C@@]12OC(=O)[C@]1([C@@H](O)[C@@H]1C=CCCC1)NC(=O)[C@@H]2CCCl [marizomib]
- OS 6 mo % ([1]; All Patients): 64%
- OS 9 mo % ([1]; All Patients): 64%
- Median OS, methylated MGMT promoter [1, 6]: Undefined
- Median PFS, methylated MGMT promoter [1, 6]: 1.7 Months
- OS 6 Months, methylated [1, 6]: 83%
- OS 9 Months, methylated [1, 6]: 83%
- Median OS, unmethylated MGMT promoter [1, 7]: Undefined
- Median PFS, unmethylated MGMT promoter [1, 7]: 1.9 Months
- OS 6 Months, unmethylated [1, 7]: 65%
- OS 9 Months, unmethylated [1, 7]: 65%
- partial remission, patients [1, 8]: 1
- stable disease, additional patients [1, 8]: 2
- Best Response NE (2), patients ([1]; methylated, N = 7): 0
- Best Response NE (2), patients ([1]; unknown, N = 5): 1
- Best Response NE (2), patients ([1]; unmethylated, N = 18): 1
- PFS 3 mo, methylated ([1]; MRZ monotherapy, N = 7): 40%
- PFS 3 mo, unmethylated ([1]; MRZ monotherapy, N = 18): 20%
- patients on the study for ≥4 cycles ([1]; MRZ monotherapy, N = 30): Six
- progression on marizomib alone ([1]; MRZ monotherapy, N = 30): most patients demonstrated rapid progression
- Best Response, Pt 0511 ([1]; MRZ monotherapy, 2nd recurrence, current cycle 10): PR (≥50% decrease compared with baseline in the sum of products of perpendicular diameters of all measurable enhancing lesions sustained for at least 4 weeks)
- OS 6 mo % ([1]; Methylated MGMT Promoter): 83%
- OS 9 mo % ([1]; Methylated MGMT Promoter): 83%
- OS 6 mo % ([1]; Unmethylated MGMT Promoter): 65%
- OS 9 mo % ([1]; Unmethylated MGMT Promoter): 65%
- patients found to respond to marizomib monotherapy ([1]; ≥ stable disease and >4 cycles (Table 38)): four
- % CT-L inhibition ([2]; PWB post-MRZ infusion (peak effect), 0.7 mg/m^2 (17 May 2016)): 100 ± 0 (3) %
- % CT-L inhibition ([2]; PWB post-Marizomib infusion (peak effect), 0.7 mg/m^2): 100 ± 0 (3) %
- % CT-L inhibition ([2]; PWB post-Marizomib infusion (peak effect), 0.8 mg/m^2): 100 ± 0 (3) %
- sustained inhibition of the CT-L domain, pre-infusion ([2]; packed whole blood, up to two weeks after marizomib dosing): 60-80%
- proteasome activity in brain [3]: inhibition of proteasome activity; also recorded: inhibits proteasome activity
- decrease of matrix invasion [4]: approximately 90%
- CL (IV infusion): high
- T½ (IV infusion): short
- Vd (IV infusion): large
- CLobs [9]: 162 (1) mL/min/m^2
- Cmax [9]: 65 ± 31 (3) ng/mL
- Vss obs [9]: 7377 (1) mL/m^2
- CLobs (MRZ 0.7 mg/m^2, C1D8 (Table 43)): 272 ± 166 (3) L/hr
- CLobs [10]: 3822 ± 1798 (2) mL/min/m^2
- Vss obs [10]: 12379 ± 8698 (2) mL/m^2
- CLobs [11]: 304 ± 85.0 (3) L/hr
- Vd [11]: 55.0 ± 19.7 (3) L
- Vss obs (MRZ […]^2, C1D8 (17 May 2016)): 12971 ± 7600 (3) mL/m^2
- CLobs (marizomib 0.7 mg/m^2 IV, C1D8, blood): 272 ± 166 (3) L/hr
- CLobs (marizomib 0.8 mg/m^2 IV, C1D8, blood): 304 ± 85.0 (3) L/hr
- MRZ pharmacokinetic parameters: effect of co-administration (with BEV): not affected by co-administration

Compound: bevacizumab [reference compound]
- 6 Months PFS, all patients [5, 12]: 16%
- 6 Months PFS, uMGMT Promoter [5, 12]: 8%
- 6 mo PFS, All [5, 13]: 16%
- 6 mo PFS, uMGMT Promoter [5, 13]: 8%
- 6 mo OS ([5]; Field (CABARET), All Pts): 61%
- 6 mo PFS ([5]; Field (CABARET), All Pts): 18%
- 9 mo OS ([5]; Field (CABARET), All Pts): 39%
- 9 mo PFS ([5]; Field (CABARET), All Pts): 6%
- 6 mo Overall Survival, All Pts ([5]; Field (CABARET)): 61%
- 6 mo Progression Free Survival, All Pts ([5]; Field (CABARET)): 18%
- 9 mo Overall Survival, All Pts ([5]; Field (CABARET)): 39%
- 9 mo Progression Free Survival, All Pts ([5]; Field (CABARET)): 6%
- 12 Mo. Overall Survival, All Pts ([5]; Field (CABARET)): 24%
- 6 mo OS [5, 14]: 18%
- 9 mo OS [5, 14]: 30%
- 9 mo PFS [5, 14]: 0%
- 6 mo OS [5, 15]: 58%
- 6 mo PFS [5, 15]: 38%
- 9 mo OS [5, 15]: 40%
- 9 mo PFS [5, 15]: 22%
- 6 mo OS [5, 16]: 25%
- 6 mo PFS [5, 16]: 10%
- 9 mo PFS [5, 16]: 0%
- 6 mo Overall Survival, All Pts ([5]; Heiland (Freiburg, Germany)): 18%
- 6 mo Overall Survival, Methylated ([5]; Heiland (Freiburg, Germany)): 58%
- 6 mo Overall Survival, Unmethylated ([5]; Heiland (Freiburg, Germany)): 25%
- 6 mo Progression Free Survival, Methylated ([5]; Heiland (Freiburg, Germany)): 38%
- 6 mo Progression Free Survival, Unmethylated ([5]; Heiland (Freiburg, Germany)): 10%
- 9 mo Overall Survival, All Pts ([5]; Heiland (Freiburg, Germany)): 30%
- 9 mo Overall Survival, Methylated ([5]; Heiland (Freiburg, Germany)): 40%
- 9 mo Progression Free Survival, All Pts ([5]; Heiland (Freiburg, Germany)): 0%
- 9 mo Progression Free Survival, Methylated ([5]; Heiland (Freiburg, Germany)): 22%
- 9 mo Progression Free Survival, Unmethylated ([5]; Heiland (Freiburg, Germany)): 0%
- 12 Mo. Overall Survival, All Pts ([5]; Heiland (Freiburg, Germany)): 10%
- 12 Mo. Overall Survival, Methylated ([5]; Heiland (Freiburg, Germany)): 24%
- 12 Mo. Progression Free Survival, All Pts ([5]; Heiland (Freiburg, Germany)): 0%
- 12 Mo. Progression Free Survival, Methylated ([5]; Heiland (Freiburg, Germany)): 10%
- 12 Mo. Progression Free Survival, Unmethylated ([5]; Heiland (Freiburg, Germany)): 0%
- 6 mo OS ([5]; Taal (BELOB), All Pts): 62%
- 6 mo PFS ([5]; Taal (BELOB), All Pts): 16%
- 9 mo OS ([5]; Taal (BELOB), All Pts): 45%
- 9 mo PFS ([5]; Taal (BELOB), All Pts): 8%
- 6 mo OS ([5]; Taal (BELOB), Methylated): 83%
- 6 mo PFS ([5]; Taal (BELOB), Methylated): 33%
- 9 mo OS ([5]; Taal (BELOB), Methylated): 67%
- 9 mo PFS ([5]; Taal (BELOB), Methylated): 22%
- 6 mo OS [5, 17]: 50%
- 6 mo PFS [5, 17]: 8%
- 9 mo PFS [5, 17]: 0%
- 6 mo Overall Survival, All Pts ([5]; Taal (BELOB)): 62%
- 6 mo Overall Survival, Methylated ([5]; Taal (BELOB)): 83%
- 6 mo Overall Survival, Unmethylated ([5]; Taal (BELOB)): 50%
- 6 mo Progression Free Survival, All Pts ([5]; Taal (BELOB)): 16%
- 6 mo Progression Free Survival, Methylated ([5]; Taal (BELOB)): 33%
- 6 mo Progression Free Survival, Unmethylated ([5]; Taal (BELOB)): 8%
- 9 mo Overall Survival, All Pts ([5]; Taal (BELOB)): 45%
- 9 mo Overall Survival, Methylated ([5]; Taal (BELOB)): 67%
- 9 mo Progression Free Survival, Methylated ([5]; Taal (BELOB)): 22%
- 9 mo Progression Free Survival, Unmethylated ([5]; Taal (BELOB)): 0%
- 12 Mo. Overall Survival, All Pts ([5]; Taal (BELOB)): 26%
- 12 Mo. Overall Survival, Methylated ([5]; Taal (BELOB)): 56%
- 12 Mo. Overall Survival, Unmethylated ([5]; Taal (BELOB)): 8%
- 12 Mo. Progression Free Survival, Unmethylated ([5]; Taal (BELOB)): 0%
- 6 mo PFS ([5]; Wick (EORTC 26101 P2), All Pts): 14%
- 9 mo PFS ([5]; Wick (EORTC 26101 P2), All Pts): 9%
- 6 mo PFS [5, 18]: 25%
- 9 mo PFS [5, 18]: 9%
- 6 mo PFS [5, 19]: 10%
- 9 mo PFS [5, 19]: 10%
- 6 mo Progression Free Survival, All Pts ([5]; Wick (EORTC 26101 P2)): 14%
- 6 mo Progression Free Survival, Methylated ([5]; Wick (EORTC 26101 P2)): 25%
- 6 mo Progression Free Survival, Unmethylated ([5]; Wick (EORTC 26101 P2)): 10%
- 9 mo Progression Free Survival, All Pts ([5]; Wick (EORTC 26101 P2)): 9%
- 9 mo Progression Free Survival, Methylated ([5]; Wick (EORTC 26101 P2)): 9%
- 9 mo Progression Free Survival, Unmethylated ([5]; Wick (EORTC 26101 P2)): 10%
- 12 Mo. Progression Free Survival, All Pts ([5]; Wick (EORTC 26101 P2)): 8%
- 12 Mo. Progression Free Survival, Methylated ([5]; Wick (EORTC 26101 P2)): 9%
- 12 Mo. Progression Free Survival, Unmethylated ([5]; Wick (EORTC 26101 P2)): 10%
- 6-month progression-free survival (PFS) rate ([5]; recurrent G4 MG): ~43%
- median overall survival (OS) ([5]; recurrent G4 MG): ~9 months
